# In patent US20060216336A1, “Transdermal therapeutic system for Parkinson's Disease” (priority 2002, published 2006):
# Assay: Multiple dose trial with rotating patch application sites in early-stage Parkinson's disease: rotigotine pharmacokinetics (Example 4)
# Excerpt: Each day, a fresh patch was placed on a new skin site (abdomen, flank, upper arm, shoulder, thigh, hip) in a rotating order. The silicone transdermal patches were made in accordance with the teachings of U.S. Patent Application Publication No. US 2003/0026830 at paragraphs 38-42, U.S. Patent Application Publication No. US 2003/0027793 at paragraphs 37-41 and U.S. Pat. No. 6,884,434, columns 5-6, Example 2 and comprised the following layers and components:
# The trial consisted of an Eligibility Assessment (EA), a 24-day Titration Phase (4.5 to 18.0 mg/day doses; incremental increases of 4.5mg/day every 6 days), a 6-day Maintenance Phase (18.0 mg/day dose), a 6-day De-escalation Phase (13.5/9.0/4.5mg/day decreasing dose every 2 days), and a Safety Follow-Up visit 2 days following the last dose.
# The silicone transdermal patches were made in accordance with the teachings of U.S. Patent Application Publication No. US 2003/0026830 at paragraphs 3842 and U.S. Patent Application Publication No. US 2003/0027793 at paragraphs 3741 comprised the following layers and components as disclosed above
# The 18.0 mg/day dose used 2×20 cm^2 patches. Initial doses were 4.5 mg/day with weekly increases of 4.5 mg/day to a maximum target dose of 18.0 mg/day.
# [1] = application site Abdomen, normalized for body weight and apparent dose, Day 27 and Day 30 combined (PKS)
# [2] = application site Flank, normalized for body weight and apparent dose, Day 27 and Day 30 combined (PKS)
# [3] = application site Hip, normalized for body weight and apparent dose, Day 27 and Day 30 combined (PKS)
# [4] = application site Shoulder, normalized for body weight and apparent dose, Day 27 and Day 30 combined (PKS)
# [5] = application site Thigh, normalized for body weight and apparent dose, Day 27 and Day 30 combined (PKS)
# [6] = application site Upper arm, normalized for body weight and apparent dose, Day 27 and Day 30 combined (PKS)
smiles,measurement,setting,value
"CCCN(CCc1cccs1)[C@H]1CCc2c(O)cccc2C1 [rotigotine, (6S)-6{propyl[2-(2-thienyl)ethyl]amino}-5,6,7,8-tetrahydro-1-naphthalenol]",Time to Maximum Concentration,"Day 30, site F (flank), Geo. Mean",15.43 h
same,Time to Maximum Concentration,"Days 27 and 30 combined, site UA (upper arm), Mean",12.71 h
same,"AUC0-t,ss,normalized, Range",[1],89.3 to 952.1 ng·kg·h/mL/mg
same,"Cmax,ss, normalized, Geometric mean (SD)",[1],16.367 (1.6473) ng * kg/mL/mg
same,"Cmax,ss, normalized, Median",[1],14.906 ng·kg/mL/mg
same,"Cmax,ss, normalized, Geometric mean (SD)",[2],17.168 (1.5894) ng * kg/mL/mg
same,"Cmax,ss, normalized, Mean",[2],18.976 ng·kg/mL/mg
same,"Cmax,ss, normalized, Median",[2],16.666 ng·kg/mL/mg
same,"Cmax,ss, normalized, Geometric mean (SD)",[3],17.253 (1.6685) ng * kg/mL/mg
same,"Cmax,ss, normalized, Mean",[3],19.956 ng·kg/mL/mg
same,"Cmax,ss, normalized, Median",[3],15.577 ng·kg/mL/mg
same,"Cmax,ss, normalized, Geometric mean (SD)",[4],14.499 (1.5627) ng * kg/mL/mg
same,"Cmax,ss, normalized, Mean",[4],15.898 ng·kg/mL/mg
same,"Cmax,ss, normalized, Median",[4],15.328 ng·kg/mL/mg
same,"Cmax,ss, normalized, Geometric mean (SD)",[5],16.046 (1.5548) ng * kg/mL/mg
same,"Cmax,ss, normalized, Mean",[5],17.793 ng·kg/mL/mg
same,"Cmax,ss, normalized, Median",[5],15.506 ng·kg/mL/mg
same,"Cmax,ss, normalized, Geometric mean (SD)",[6],16.508 (1.4597) ng * kg/mL/mg
same,"Cmax,ss, normalized, Mean",[6],17.727 ng·kg/mL/mg
same,"Cmax,ss, normalized, Median",[6],15.499 ng·kg/mL/mg
same,plasma concentration at Time 0 (Ctrough),"human, in vivo",about 1 ng/mL
same,concentration at 30 day,"human, in vivo, 18 mg/day, Average Concentration, Day 30, site UA (upper arm), Median",0.895 ng/mL
same,concentration at […],"human, in vivo, 18 mg/day, rotigotine plasma concentration Geo. Mean, Hip, Day 27, 23.5 H",0.875 ng/mL
same,concentration at […],"human, in vivo, 18 mg/day, rotigotine plasma concentration Geo. Mean, Hip, Day 30, 23.5 H",0.758 ng/mL
same,concentration at […],"human, in vivo, 18 mg/day, rotigotine plasma concentration Geo. Mean, Shoulder, Day 30, 23.5 H",0.851 ng/mL
same,concentration at […],"human, in vivo, 18 mg/day, rotigotine plasma concentration Geo. Mean, Shoulder, Days 27 & 30 Combined, 23.5 H",0.82 ng/mL
same,concentration at […],"human, in vivo, 18 mg/day, rotigotine plasma concentration Geo. Mean, Thigh, Day 30, 23.5 H",0.656 ng/mL
same,concentration at 18 h,"human, in vivo, 18 mg/day, rotigotine plasma concentration Geo. Mean, Thigh, Days 27 & 30 Combined, 18 H",0.895 ng/mL
same,concentration at […],"human, in vivo, 18 mg/day, rotigotine plasma concentration Geo. Mean, Thigh, Days 27 & 30 Combined, 23.5 H",0.639 ng/mL
same,concentration at […],"human, in vivo, 18 mg/day, rotigotine plasma concentration Geo. Mean, Upper Arm, Day 30, 23.5 H",0.833 ng/mL
same,concentration at […],"human, in vivo, 18 mg/day, rotigotine plasma concentration Geo. Mean, Upper Arm, Days 27 & 30 Combined, 23.5 H",0.789 ng/mL
same,concentration at […],"human, in vivo, 18 mg/day, rotigotine plasma concentration Max, Hip, Day 27, 23.5 H",1.75 ng/mL
same,concentration at […],"human, in vivo, 18 mg/day, rotigotine plasma concentration Max, Hip, Day 30, 23.5 H",1.35 ng/mL
same,concentration at […],"human, in vivo, 18 mg/day, rotigotine plasma concentration Max, Hip, Days 27 & 30 Combined, 23.5 H",1.75 ng/mL
same,concentration at […],"human, in vivo, 18 mg/day, rotigotine plasma concentration Max, Shoulder, Day 30, 23.5 H",3.01 ng/mL
same,concentration at […],"human, in vivo, 18 mg/day, rotigotine plasma concentration Max, Shoulder, Days 27 & 30 Combined, 23.5 H",3.01 ng/mL
same,concentration at […],"human, in vivo, 18 mg/day, rotigotine plasma concentration Max, Thigh, Day 30, 23.5 H",1.59 ng/mL
same,concentration at […],"human, in vivo, 18 mg/day, rotigotine plasma concentration Max, Thigh, Days 27 & 30 Combined, 23.5 H",1.59 ng/mL
same,concentration at […],"human, in vivo, 18 mg/day, rotigotine plasma concentration Max, Upper Arm, Day 27, 23.5 H",1.88 ng/mL
same,concentration at […],"human, in vivo, 18 mg/day, rotigotine plasma concentration Max, Upper Arm, Day 30, 23.5 H",1.67 ng/mL
same,concentration at […],"human, in vivo, 18 mg/day, rotigotine plasma concentration Max, Upper Arm, Days 27 & 30 Combined, 23.5 H",1.88 ng/mL
same,concentration at […],"human, in vivo, 18 mg/day, rotigotine plasma concentration Mean, Hip, Day 27, 23.5 H",0.96 ng/mL
same,concentration at […],"human, in vivo, 18 mg/day, rotigotine plasma concentration Mean, Hip, Day 30, 23.5 H",0.82 ng/mL
same,concentration at […],"human, in vivo, 18 mg/day, rotigotine plasma concentration Mean, Hip, Days 27 & 30 Combined, 23.5 H",0.89 ng/mL
same,concentration at […],"human, in vivo, 18 mg/day, rotigotine plasma concentration Mean, Shoulder, Day 30, 23.5 H",1.02 ng/mL
same,concentration at […],"human, in vivo, 18 mg/day, rotigotine plasma concentration Mean, Shoulder, Days 27 & 30 Combined, 23.5 H",0.966 ng/mL
same,concentration at […],"human, in vivo, 18 mg/day, rotigotine plasma concentration Mean, Thigh, Day 30, 23.5 H",0.784 ng/mL
same,concentration at […],"human, in vivo, 18 mg/day, rotigotine plasma concentration Mean, Thigh, Days 27 & 30 Combined, 23.5 H",0.735 ng/mL
same,concentration at […],"human, in vivo, 18 mg/day, rotigotine plasma concentration Mean, Upper Arm, Day 27, 23.5 H",0.936 ng/mL
same,concentration at […],"human, in vivo, 18 mg/day, rotigotine plasma concentration Mean, Upper Arm, Day 30, 23.5 H",0.924 ng/mL
same,concentration at […],"human, in vivo, 18 mg/day, rotigotine plasma concentration Mean, Upper Arm, Days 27 & 30 Combined, 23.5 H",0.93 ng/mL
same,concentration at […],"human, in vivo, 18 mg/day, rotigotine plasma concentration Median, Hip, Day 27, 23.5 H",0.957 ng/mL
same,concentration at […],"human, in vivo, 18 mg/day, rotigotine plasma concentration Median, Hip, Day 30, 23.5 H",0.692 ng/mL
same,concentration at […],"human, in vivo, 18 mg/day, rotigotine plasma concentration Median, Shoulder, Day 30, 23.5 H",0.848 ng/mL
same,concentration at […],"human, in vivo, 18 mg/day, rotigotine plasma concentration Median, Shoulder, Days 27 & 30 Combined, 23.5 H",0.799 ng/mL
same,concentration at […],"human, in vivo, 18 mg/day, rotigotine plasma concentration Median, Thigh, Day 30, 23.5 H",0.68 ng/mL
same,concentration at […],"human, in vivo, 18 mg/day, rotigotine plasma concentration Median, Thigh, Days 27 & 30 Combined, 23.5 H",0.668 ng/mL
same,concentration at […],"human, in vivo, 18 mg/day, rotigotine plasma concentration Median, Upper Arm, Day 30, 23.5 H",0.899 ng/mL
same,concentration at […],"human, in vivo, 18 mg/day, rotigotine plasma concentration Median, Upper Arm, Days 27 & 30 Combined, 23.5 H",0.899 ng/mL
same,concentration at […],"human, in vivo, 18 mg/day, rotigotine plasma concentration Min, Hip, Day 27, 23.5 H",0.261 ng/mL
same,concentration at […],"human, in vivo, 18 mg/day, rotigotine plasma concentration Min, Hip, Day 30, 23.5 H",0.461 ng/mL
same,concentration at […],"human, in vivo, 18 mg/day, rotigotine plasma concentration Min, Hip, Days 27 & 30 Combined, 23.5 H",0.261 ng/mL
same,concentration at […],"human, in vivo, 18 mg/day, rotigotine plasma concentration Min, Shoulder, Day 30, 23.5 H",0.405 ng/mL
same,concentration at […],"human, in vivo, 18 mg/day, rotigotine plasma concentration Min, Shoulder, Days 27 & 30 Combined, 23.5 H",0.387 ng/mL
same,concentration at […],"human, in vivo, 18 mg/day, rotigotine plasma concentration Min, Thigh, Day 30, 23.5 H",0.152 ng/mL
same,concentration at […],"human, in vivo, 18 mg/day, rotigotine plasma concentration Min, Thigh, Days 27 & 30 Combined, 23.5 H",0.152 ng/mL
